Target: T1, GIVA cPLA2 (Homo sapiens, UniProt P47712)
T1 construct: gene PLA2G4A
T1 sequence (P47712 1-749): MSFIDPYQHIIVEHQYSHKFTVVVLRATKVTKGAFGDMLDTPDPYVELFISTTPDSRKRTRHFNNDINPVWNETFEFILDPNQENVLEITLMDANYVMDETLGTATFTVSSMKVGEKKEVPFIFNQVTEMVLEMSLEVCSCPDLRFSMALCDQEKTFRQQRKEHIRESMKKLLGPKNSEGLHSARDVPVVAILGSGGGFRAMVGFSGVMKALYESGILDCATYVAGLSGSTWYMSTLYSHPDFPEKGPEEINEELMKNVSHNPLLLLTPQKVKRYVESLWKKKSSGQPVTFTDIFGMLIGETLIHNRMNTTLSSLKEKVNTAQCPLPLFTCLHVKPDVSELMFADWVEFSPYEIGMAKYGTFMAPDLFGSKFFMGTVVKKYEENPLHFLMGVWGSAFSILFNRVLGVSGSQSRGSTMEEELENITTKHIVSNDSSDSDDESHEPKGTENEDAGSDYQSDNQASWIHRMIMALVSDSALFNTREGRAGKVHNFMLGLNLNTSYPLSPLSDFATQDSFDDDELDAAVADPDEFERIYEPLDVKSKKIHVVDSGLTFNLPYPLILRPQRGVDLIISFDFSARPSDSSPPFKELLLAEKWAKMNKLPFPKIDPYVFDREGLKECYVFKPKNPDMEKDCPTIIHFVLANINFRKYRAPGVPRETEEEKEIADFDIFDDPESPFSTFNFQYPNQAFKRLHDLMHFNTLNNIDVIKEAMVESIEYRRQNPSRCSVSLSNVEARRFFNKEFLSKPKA
Assay: LC/MS lipidomics-based mixed micelle assay with recombinant human enzyme, dose-response
Format: biochemical

CC(CCCc1ccc(-c2ccccc2)cc1)C(=O)C(=O)OCCCCC(=O)O (centres unmarked) [17a, 5-((6-([1,1’-Biphenyl]-4-yl)-3-methyl-2-oxohexanoyl)oxy)pentanoic acid]
GIVA cPLA2 / XI(50): 0.00036 ± 0.00007 mole fraction (XI(50))

CC(CCCC(=O)O)OC(=O)C(=O)CCCCc1ccc(-c2ccccc2)cc1 (centres unmarked) [17b, 5-((6-([1,1’-Biphenyl]-4-yl)-2-oxohexanoyl)oxy)hexanoic acid]
GIVA cPLA2 / XI(50): 0.0012 ± 0.00008 mole fraction (XI(50))
